Source: ChEMBL document CHEMBL5316299, “Discovery of Novel Drug-like PHGDH Inhibitors to Disrupt Serine Biosynthesis for Cancer Therapy” (J Med Chem, 2023)
pIC50, pKd, pKi: −log10 of the molar value.

Columns and labels:
[1] = biological target: T1, D-3-phosphoglycerate dehydrogenase (Homo sapiens, UniProt O43175); assay: Competitive inhibition of PHGDH (unknown origin) assessed as inhibition constant using NAD+ as substrate preincubated for 30 mins followed by substrate addition and measured after 5 mins by Lineweaver-Burk plot analysis
T1 sequence (O43175 whole entry): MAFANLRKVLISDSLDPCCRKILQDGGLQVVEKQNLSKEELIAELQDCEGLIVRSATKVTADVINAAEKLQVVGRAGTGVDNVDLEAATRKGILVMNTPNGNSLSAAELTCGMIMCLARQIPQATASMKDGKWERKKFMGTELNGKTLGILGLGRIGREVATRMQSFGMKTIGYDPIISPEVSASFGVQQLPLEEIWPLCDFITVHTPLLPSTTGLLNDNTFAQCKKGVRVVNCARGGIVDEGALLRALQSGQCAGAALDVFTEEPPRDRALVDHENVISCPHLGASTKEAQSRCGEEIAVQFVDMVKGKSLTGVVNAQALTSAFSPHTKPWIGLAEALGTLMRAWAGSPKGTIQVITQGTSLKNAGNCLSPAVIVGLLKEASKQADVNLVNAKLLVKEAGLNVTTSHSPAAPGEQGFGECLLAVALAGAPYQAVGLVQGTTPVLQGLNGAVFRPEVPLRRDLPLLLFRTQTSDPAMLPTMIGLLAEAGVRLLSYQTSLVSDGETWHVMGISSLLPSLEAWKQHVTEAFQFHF

[2] = biological target: T1, D-3-phosphoglycerate dehydrogenase; assay: Competitive inhibition of PHGDH (unknown origin) assessed as inhibition constant using 3-PG as substrate preincubated for 30 mins followed by substrate addition and measured after 5 mins by Lineweaver-Burk plot analysis
MDA-MB-231 = assay: Antiproliferative activity against human MDA-MB-231 cells assessed as reduction in cell viability measured for 72 hrs by CCK-8 assay; assay type: functional, cell-based; conditions: MDA-MB-231, 72 h
[3] = biological target: T1, D-3-phosphoglycerate dehydrogenase; assay: Inhibition of wild type PHGDH (unknown origin) preincubated for 30 mins followed by substrate addition and measured after 5 mins
[4] = Oral bioavailability in ICR mouse at 3 mg/kg measured for 0.25 to 24 hrs by UPLC-MS/MS analysis; assay type: ADME, organism-based; conditions: in vivo, time 0.25-24 hrs
[5] = Toxicity in BALB/c nude mouse xenografted with human PC-9 cells assessed as abnormalities in lung at 25 mg/kg, ip administered every day for 31 days by H and E staining based assay; assay type: organism-based; conditions: in vivo, 744 h, time 31 day
HCC827 = assay: Antiproliferative activity against human HCC827 cells expressing PHGDH assessed as reduction in cell viability measured for 72 hrs by CCK-8 assay; assay type: functional, cell-based; conditions: HCC827, 72 h
PC-9 [6] = assay: Antiproliferative activity against human PC-9 cells expressing PHGDH assessed as reduction in cell viability measured for 72 hrs by CCK-8 assay; assay type: functional, cell-based; conditions: PC-9, 72 h
[7] = Drug exposure in BALB/c nude mouse plasma at 25 mg/kg, ip measured for 0.5 to 4 hrs; assay type: ADME, organism-based; conditions: in vivo, time 0.5-4 hrs
MDA-MB-468 = assay: Antiproliferative activity against human MDA-MB-468 cells expressing PHGDH assessed as reduction in cell viability measured for 72 hrs by CCK-8 assay; assay type: functional, cell-based; conditions: MDA-MB-468, 72 h
[8] = Microsomal stability in rat liver microsomes assessed as intrinsic clearance measured upto 60 mins by HPLC-MS/MS analysis; assay type: ADME, Microsome; conditions: 1 h
[9] = Microsomal stability in human liver microsomes assessed as half life measured upto 60 mins by HPLC-MS/MS analysis; assay type: ADME, Microsome
ZR-75-1 = assay: Antiproliferative activity against human ZR-75-1 cells assessed as reduction in cell viability measured for 72 hrs by CCK-8 assay; assay type: functional, cell-based; conditions: ZR-75-1, 72 h
[10] = biological target: T1, D-3-phosphoglycerate dehydrogenase; assay: Inhibition of PHGDH (unknown origin) preincubated for 30 mins followed by substrate addition and measured after 5 mins
[11] = Toxicity in BALB/c nude mouse xenografted with human PC-9 cells assessed as loss of body weight at 25 mg/kg, ip administered every day for 31 days; assay type: organism-based; conditions: in vivo, 744 h, time 31 day
HCT-116 = assay: Antiproliferative activity against human HCT-116 cells expressing PHGDH assessed as reduction in cell viability measured for 72 hrs by CCK-8 assay; assay type: functional, cell-based; conditions: HCT-116, 72 h
[12] = AUClast in ICR mouse at 3 mg/kg, po measured for 0.25 to 24 hrs by UPLC-MS/MS analysis; assay type: ADME, organism-based; design: dose 3 mg/kg, time 0.25-24 hrs, route po; conditions: in vivo
[13] = biological target: T1, D-3-phosphoglycerate dehydrogenase; assay: Binding affinity to PHGDH (unknown origin) assessed as dissociation constant incubated for 60 mins by microscale thermophoresis analysis
NCI-H1975 = assay: Antiproliferative activity against human NCI-H1975 cells expressing PHGDH assessed as reduction in cell viability measured for 72 hrs by CCK-8 assay; assay type: functional, cell-based; conditions: NCI-H1975, 72 h
PANC-1 = assay: Antiproliferative activity against human PANC-1 cells assessed as reduction in cell viability measured for 72 hrs by CCK-8 assay; assay type: functional, cell-based; conditions: PANC-1, 72 h
[14] = Cmax in ICR mouse at 3 mg/kg, po measured for 0.25 to 24 hrs by UPLC-MS/MS analysis; assay type: ADME, organism-based; design: dose 3 mg/kg, time 0.25-24 hrs, route po; conditions: in vivo
[15] = Tmax in ICR mouse at 3 mg/kg, po measured for 0.25 to 24 hrs by UPLC-MS/MS analysis; assay type: ADME, organism-based; conditions: in vivo, time 0.25-24 hrs
BT-20 = assay: Antiproliferative activity against human BT-20 cells expressing PHGDH assessed as reduction in cell viability measured for 72 hrs by CCK-8 assay; assay type: functional, cell-based; conditions: BT-20, 72 h
[16] = Drug exposure in BALB/c nude mouse tumor at 50 mg/kg, ip measured for 0.5 to 4 hrs; assay type: ADME, organism-based; conditions: in vivo, time 0.5-4 hrs
[17] = Microsomal stability in human liver microsomes assessed as intrinsic clearance measured upto 60 mins by HPLC-MS/MS analysis; assay type: ADME, Microsome; conditions: 1 h
[18] = Observed clearance in ICR mouse at 1 mg/kg, iv measured for 0.05 to 24 hrs by UPLC-MS/MS analysis; assay type: ADME, organism-based; conditions: in vivo, time 0.05-24 hrs
[19] = Half life in ICR mouse at 3 mg/kg, po measured for 0.25 to 24 hrs by UPLC-MS/MS analysis; assay type: ADME, organism-based; conditions: in vivo, time 0.25-24 hrs
[20] = Half life in ICR mouse at 1 mg/kg, iv measured for 0.05 to 24 hrs by UPLC-MS/MS analysis; assay type: ADME, organism-based; conditions: in vivo, time 0.05-24 hrs
[21] = Toxicity in BALB/c nude mouse xenografted with human PC-9 cells assessed as abnormalities in kidney at 25 mg/kg, ip administered every day for 31 days by H and E staining based assay; assay type: organism-based; conditions: in vivo, 744 h, time 31 day
[22] = biological target: T1, D-3-phosphoglycerate dehydrogenase; assay: Binding affinity to his-tagged PHGDH ([…] residues) (unknown origin) assessed as dissociation constant by SPR analysis
MCF7 = assay: Antiproliferative activity against human MCF7 cells assessed as reduction in cell viability measured for 72 hrs by CCK-8 assay; assay type: functional, cell-based; conditions: MCF7, 72 h
PC-9 [23] = assay: Antitumor activity against human PC-9 cells xenografted in BALB/c nude mouse assessed as tumor growth inhibition at 12.5 mg/kg, ip administered every day for 31 days by digital vernier caliper analysis; assay type: functional; conditions: time 31 day
NCI-H23 = assay: Antiproliferative activity against human NCI-H23 cells assessed as reduction in cell viability measured for 72 hrs by CCK-8 assay; assay type: functional, cell-based; conditions: NCI-H23, 72 h
[24] = Microsomal stability in mouse liver microsomes assessed as half life measured upto 60 mins by HPLC-MS/MS analysis; assay type: ADME, Microsome
[25] = Toxicity in BALB/c nude mouse xenografted with human PC-9 cells assessed as abnormalities in liver at 25 mg/kg, ip administered every day for 31 days by H and E staining based assay; assay type: organism-based; conditions: in vivo, 744 h, time 31 day
[26] = Microsomal stability in mouse liver microsomes assessed as intrinsic clearance measured upto 60 mins by HPLC-MS/MS analysis; assay type: ADME, Microsome; conditions: 1 h
[27] = biological target: D-3-phosphoglycerate dehydrogenase (Homo sapiens, UniProt O43175, D175A); assay: Inhibition of PHGDH D175A mutant (unknown origin) preincubated for 30 mins followed by substrate addition and measured after 5 mins
Sequence of D-3-phosphoglycerate dehydrogenase (Homo sapiens, UniProt O43175, D175A) (O43175 2-533 D175A limits assumed): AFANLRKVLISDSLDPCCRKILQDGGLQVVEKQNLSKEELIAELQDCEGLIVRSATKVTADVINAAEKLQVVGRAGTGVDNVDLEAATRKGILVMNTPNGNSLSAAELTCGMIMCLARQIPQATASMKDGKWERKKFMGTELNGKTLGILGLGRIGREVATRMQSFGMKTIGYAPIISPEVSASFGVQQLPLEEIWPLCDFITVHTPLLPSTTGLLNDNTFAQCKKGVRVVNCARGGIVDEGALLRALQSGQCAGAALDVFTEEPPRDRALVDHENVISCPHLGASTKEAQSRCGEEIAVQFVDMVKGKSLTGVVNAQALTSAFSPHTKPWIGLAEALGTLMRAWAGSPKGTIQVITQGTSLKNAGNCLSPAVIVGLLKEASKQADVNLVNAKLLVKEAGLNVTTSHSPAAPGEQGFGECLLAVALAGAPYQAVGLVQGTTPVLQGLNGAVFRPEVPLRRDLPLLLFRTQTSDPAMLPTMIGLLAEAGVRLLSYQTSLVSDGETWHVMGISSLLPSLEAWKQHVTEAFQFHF

[28] = Microsomal stability in rat liver microsomes assessed as half life measured upto 60 mins by HPLC-MS/MS analysis; assay type: ADME, Microsome
PC-9 [29] = assay: Antitumor activity against human PC-9 cells xenografted in BALB/c nude mouse assessed as tumor growth inhibition at 25 mg/kg, ip administered every day for 31 days by digital vernier caliper analysis; assay type: functional; conditions: time 31 day
MCF-10A = assay: Antiproliferative activity against human MCF-10A cells assessed as reduction in cell viability measured for 72 hrs by CCK-8 assay; assay type: functional, cell-based
[30] = AUClast in ICR mouse at 1 mg/kg, iv measured for 0.05 to 24 hrs by UPLC-MS/MS analysis; assay type: ADME, organism-based; design: time upper 24 hrs, dose 1 mg/kg, time lower 0.05 hrs, route iv; conditions: in vivo

`CC(=O)c1cccc(NS(=O)(=O)c2ccc(C(=O)Nc3nc(-c4cccc(F)c4)cs3)cc2)c1` gave a pKi [1] of 4.82, a pKi [2] of 4.83 and a pIC50 (MDA-MB-231) of 4.43. For the same compound, the pIC50 [3] was 5.55, the bioavailability [4] was 82% and the Activity [5] was “Non-Toxic”. The pIC50 (HCC827) was 4.67, the pIC50 (PC-9 [6]) was 5.46 and the concentration [7] was 30.8 µM. The pIC50 (MDA-MB-468) was 5.28, the CLH [8] was 56.6 mL/min/g and the half-life [9] was 1.77 h. For the same compound, the pIC50 (ZR-75-1) was 4.42, the pIC50 [10] was 5.55 and the Activity [11] was “Non-Toxic”. The pIC50 (HCT-116) was 5.02, the AUClast [12] was 94386 ng·mL·h and the pKd [13] was 5.63. It also gave a pIC50 (NCI-H1975) of 5.21, a pIC50 (PANC-1) of 4.44 and a Cmax [14] of 8840 ng/mL. The Tmax [15] was 3.33 h, the pIC50 (BT-20) was 5.28 and the Drug uptake [16] was “Active”. It also gave a CLH [17] of 19.8 mL/min/g, a clearance [18] of 0.48 mL/min/kg and a half-life [19] of 4.74 h. The half-life [20] was 4.94 h, the Activity [21] was “Non-Toxic” and the pKd [22] was 5.61. The pIC50 (MCF7) was 4.41, the TGI (PC-9 [23]) was 41.4% and the pIC50 (NCI-H23) was 4.54. The half-life [24] was 1.45 h, the Activity [25] was “Non-Toxic” and the CLH [26] was 24.1 mL/min/g. For the same compound, the pIC50 [27] was under 4.30, the half-life [28] was 0.618 h and the TGI (PC-9 [29]) was 68.9%. It also gave a pIC50 (MCF-10A) of 4.28 and an AUClast [30] of 38358 ng·mL·h.
